Experimental data reported in patent US8362000B2, “Azetidinyl diamides as monoacylglycerol lipase inhibitors” (Janssen Pharmaceutica NV, priority 2009, dated 2013).
Changes are numbered by the printed parent chain. pIC50, pKd: −log10 of the molar value. Like-named read-outs stand apart in the source and are kept apart here.

Tests used:
MGL = target: T1, MGL (Rattus norvegicus, UniProt Q8R431); assay: 2-AG accumulation assay in rat brain homogenate; type: biochemical; conditions: rat brain homogenate, 2-AG accumulation as percent of vehicle; for 2-AG accumulation, % of vehicle control at 1 µM: compound 1 μM, read-out: Rat Brain 2AG % VehCntrl (%) @ 1 μM; for 2-AG accumulation, % of vehicle control at 0.01 µM: compound 0.01 μM, read-out: Rat Brain 2AG % VehCntrl (%) @ 0.01 μM; for 2-AG accumulation, % of vehicle control at 0.1 µM: compound 0.1 μM, read-out: Rat Brain 2AG % VehCntrl (%) @ 0.1 μM; for 2-AG accumulation, % of vehicle control at 10 µM: compound 10 μM, read-out: Rat Brain 2AG % VehCntrl (%) @ 10 μM
T1 construct: one g rat brain was homogenized using a Polytron homogenizer; from tissue; host or cells: rat brain homogenate
T1 sequence (Q8R431 1-303): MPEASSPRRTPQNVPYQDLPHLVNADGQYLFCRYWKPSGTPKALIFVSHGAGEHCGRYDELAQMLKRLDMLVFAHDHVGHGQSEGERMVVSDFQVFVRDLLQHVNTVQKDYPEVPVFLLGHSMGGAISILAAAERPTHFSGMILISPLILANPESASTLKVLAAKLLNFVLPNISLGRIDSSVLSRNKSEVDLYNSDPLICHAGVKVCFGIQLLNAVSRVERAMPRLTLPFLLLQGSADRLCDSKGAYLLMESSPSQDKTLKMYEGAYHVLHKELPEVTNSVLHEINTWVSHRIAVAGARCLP

mutant MGL = target: T2, mutant MGL (Homo sapiens, UniProt Q99685, L169S/L176S); assay: MGL ThermoFluor assay - mutant; type: binding; conditions: for pKd: read-out: MGL mutant ThermoFluor Kd; for Kd: ThermoFluor, compound concentration measured by qNMR, read-out: MGL mutant ThermoFluor qKd (μM) (using qNMR conc.)
T2 sequence (Q99685 1-303 L169S/L176S): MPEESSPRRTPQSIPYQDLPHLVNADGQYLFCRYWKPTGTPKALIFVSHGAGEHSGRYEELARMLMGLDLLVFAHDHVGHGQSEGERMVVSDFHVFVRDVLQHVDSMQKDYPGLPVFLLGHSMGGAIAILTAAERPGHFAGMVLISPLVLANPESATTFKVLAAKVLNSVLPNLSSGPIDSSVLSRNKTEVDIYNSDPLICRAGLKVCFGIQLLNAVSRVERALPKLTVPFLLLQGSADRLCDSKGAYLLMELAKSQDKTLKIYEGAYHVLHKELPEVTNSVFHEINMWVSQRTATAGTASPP

[1] = test system: CFA-induced paw radiant heat hypersensitivity; assay: CFA-induced paw radiant heat hypersensitivity; type: in vivo, rat; conditions: Rattus norvegicus, po, 30 mg/kg p.o., HPβCD, last time point 180 or 300 min
[2] = target: T3, purified wild type MGL (wt-MGLL 6H-11-313) (Homo sapiens, UniProt Q99685)
T3 sequence (Q99685 1-303): T2 sequence (Q99685 1-303 L169S/L176S) with S169L, S176L

[3] = ThermoFluor thermal stability binding assay
[4] = group mean values, read-out: CFA thermal hypersensitivity Method 1: peak % reversal
[5] = individual animal values, read-out: CFA thermal hypersensitivity Method 2: peak % reversal
[6] = ThermoFluor concentration-response

Row | Structure (SMILES) | 2-AG accumulation, % of vehicle control at 1 µM (MGL) [%] | pKd (mutant MGL; [3]) | inhibition in vivo at 30 mg/kg [1, 4] [%] | pIC50 [2] | inhibition in vivo at 30 mg/kg [1, 5] [%] | pKd (mutant MGL; [6]) | Kd (mutant MGL) [µM] | 2-AG accumulation, % of vehicle control at 0.01 µM (MGL) [%] | 2-AG accumulation, % of vehicle control at 0.1 µM (MGL) [%] | 2-AG accumulation, % of vehicle control at 10 µM (MGL) [%]
1 | O=C(c1ccccc1)N1CCN(C2CN(C(=O)c3sc4cc(Br)ccc4c3Cl)C2)CC1 [Cpd 331] | 310 | 8.16 | 14.3 | 7.34 |  |  |  |  |  | 
2 | O=C(c1ccc(-c2cccc(C(F)(F)F)c2)c(F)c1)N1CC(N2CCN(C(=O)c3cscn3)CC2)C1 [Cpd 1070, 1-(1-{[2-Fluoro-3′-(trifluoromethyl)biphenyl-4-yl]carbonyl}azetidin-3-yl)-4-(1,3-thiazol-4-ylcarbonyl)piperazine] | 551 | 8.22 | 25.7 | 8.10 | 23.1 |  |  |  |  | 
3 | O=C(c1ccc2c(ccn2-c2ccc(F)c(F)c2)c1)N1CC(N2CCN(C(=O)c3nccs3)CC2)C1 [Cpd 1362, 1-(3,4-Difluorophenyl)-5-({3-[4-(1,3-thiazol-2-ylcarbonyl)piperazin-1-yl]azetidin-1-yl}carbonyl)-1H-indole] | 635 |  | 186 | > 8.30 |  | 9.00 |  |  |  | 
4 | O=C(c1ccccc1)N1CCN(C2CN(C(=O)c3ccc4c(ccn4-c4ccc(F)c(F)c4)c3)C2)CC1 [Cpd 571, 1-(3,4-Difluorophenyl)-5-({3-[4-(phenylcarbonyl)piperazin-1-yl]azetidin-1-yl}carbonyl)-1H-indole] | 307 | 7.34 | 133 | 7.55 |  |  | 0.08 |  |  | 
5 | O=C(c1nccs1)N1CCN(C2CN(C(=O)c3ccc(-c4cccc(C(F)(F)F)c4)cc3Cl)C2)CC1 [Cpd 250, 1-(1-{[3-Chloro-3′-(trifluoromethyl)biphenyl-4-yl]carbonyl}azetidin-3-yl)-4-(1,3-thiazol-2-ylcarbonyl)piperazine] |  | 8.77 | 41.7 | > 8.30 | 41.9 |  |  | 180 | 472 | 
6 | Cc1nc(-c2cccc(C(F)(F)F)c2)sc1C(=O)N1CC(N2CCN(C(=O)c3cscn3)CC2)C1 [Cpd 485, 1-[1-({4-Methyl-2-[3-(trifluoromethyl)phenyl]-1,3-thiazol-5-yl}carbonyl)azetidin-3-yl]-4-(1,3-thiazol-4-ylcarbonyl)piperazine] | 396 |  | 34.4 | 6.99 | 32.3 | 7.59 |  |  | 208 | 818
7 | Cc1cc(-c2cccc(C(F)(F)F)c2)ccc1C(=O)N1CC(N2CCN(C(=O)c3nccs3)CC2)C1 [Cpd 239, 1-(1-{[3-Methyl-3′-(trifluoromethyl)biphenyl-4-yl]carbonyl}azetidin-3-yl)-4-(1,3-thiazol-2-ylcarbonyl)piperazine] |  | 8.30 | 81.8 | 8.00 | 87.5 |  |  | 153 | 290 | 
8 | Cc1nc(-c2cccc(Cl)c2)sc1C(=O)N1CC(N2CCN(C(=O)c3nccs3)CC2)C1 [Cpd 490, 1-(1-{[2-(3-Chlorophenyl)-4-methyl-1,3-thiazol-5-yl]carbonyl}azetidin-3-yl)-4-(1,3-thiazol-2-ylcarbonyl)piperazine] | 756 |  | 18.4 | 7.65 | 19.7 | 8.08 |  | 208 | 343 | 886
9 | Cc1cc(-c2ccccc2)ccc1C(=O)N1CC(N2CCN(C(=O)c3cscn3)CC2)C1 [Cpd 488, 1-{1-[(3-Methylbiphenyl-4-yl)carbonyl]azetidin-3-yl}-4-(1,3-thiazol-4-ylcarbonyl)piperazine] | 248 | 6.49 | 78 | 6.42 | 85.5 |  |  |  | 219 | 681
10 | O=C(c1cscn1)N1CCN(C2CN(C(=O)c3sc4cc(C(F)(F)F)c(F)cc4c3Cl)C2)CC1 [Cpd 666] | 359 | 8.70 | -3.1 | 7.89 |  |  | 0.003 |  |  | 
11 | O=C(c1ccc(-c2ccccc2)cc1)N1CC(N2CCN(C(=O)c3nccs3)CC2)C1 [Cpd 9, 1-[1-(Biphenyl-4-ylcarbonyl)azetidin-3-yl]-4-(1,3-thiazol-2-ylcarbonyl)piperazine] | 529 |  | 75.4 | 7.76 | 77.4 | 8.61 |  | 99 | 184 | 
12 | O=C(c1ccc2c(-c3ccc(C(F)(F)F)cc3)c[nH]c2c1)N1CC(N2CCN(C(=O)c3nccs3)CC2)C1 [Cpd 1340] | 761 |  | 13.1 | > 8.30 |  | 9.00 |  |  |  | 
13 | O=C(c1ccccc1)N1CCN(C2CN(C(=O)c3ccc(-c4ccccc4)cc3)C2)CC1 [Cpd 5, 1-[1-(Biphenyl-4-ylcarbonyl)azetidin-3-yl]-4-(phenylcarbonyl)piperazine] | 156 |  | 96.6 | 6.28 | 100 | 7.26 |  | 122 | 123 | 279
14 | O=C(c1ccc(OCc2ccccn2)c(Cl)c1)N1CC(N2CCN(C(=O)c3nccs3)CC2)C1 [Cpd 407, 1-(1-{[3-Chloro-4-(pyridine-2-ylmethoxy)phenyl]carbon-yl}azetidin-3-yl)-4-(1,3-thiazol-2-ylcarbonyl)piperazine] | 441 | 7.01 | 1.6 | 7.30 | 1.4 |  |  |  | 127 | 743
15 | Cc1cc(-c2ccc(F)c(Cl)c2)ccc1C(=O)N1CC(N2CCN(C(=O)c3cscn3)CC2)C1 [Cpd 253, 1-{1-[(3′-Chloro-4′-fluoro-3-methylbiphenyl-4-yl)carbonyl]azetidin-3-yl}-4-(1,3-thiazol-4-ylcarbonyl)piperazine] | 319 | 7.67 | 64.3 | 7.31 | 87.2 |  |  |  | 107 | 624
16 | O=C(c1ccc2c(ccn2-c2ccc(F)cc2F)c1)N1CC(N2CCN(C(=O)c3cscn3)CC2)C1 [Cpd 1139, 1-(2,4-Difluorophenyl)-5-({3-[4-(1,3-thiazol-4-ylcarbonyl)piperazin-1-yl]azetidin-1-yl}carbonyl)-1H-indole] | 654 |  | 43.8 | 7.57 |  | 7.77 |  |  |  | 
17 | O=C(c1ccc2c(ccn2-c2ccc(F)c(F)c2)c1)N1CC(N2CCN(C(=O)c3cscn3)CC2)C1 [Cpd 1363, 1-(3,4-Difluorophenyl)-5-({3-[4-(1,3-thiazol-4-ylcarbonyl)piperazin-1-yl]azetidin-1-yl}carbonyl)-1H-indole] | 628 |  | 69.7 | > 8.30 |  | 7.85 |  |  |  | 
